Laboratory results: patent US10906905B2, “Five-membered heteroaryl ring bridged ring derivative, preparation method therefor and medical use thereof” (Jiangsu Hengrui Medicine Co., Ltd., priority 2016, dated 2021)

target: TGFβRI kinase ALK5 (Homo sapiens (Human), UniProt P36897); assay: Inhibition of TGFβRI kinase ALK5 activity (TGFβRI kinase assay kit, ADP-Glo); assay type: biochemical; details: ATP 50 μM; read-out: IC50 of inhibition effect on TGFβRI kinase ALK5 activity
Experimental: The inhibition effect of TGFβRI kinase activity in vitro was determined by the following method.
The inhibition effect of the compounds of the present invention on TGFβRI kinase ALK5 activity was determined by the following experimental method:
TGFβRI kinase assay kit (V4093, Promega) was used to assay enzyme activity. 2 μl of enzyme solution (the final concentration of enzyme in the reaction system was 2 ng/μL) formulated with reaction buffer (40 mM Tris pH 7.5, 20 mM MgCl2, 0.1 mg/ml BSA), 1 μl of a 3-fold gradient dilution of the compounds dissolved in 5% DMSO, and 2 μl of a mixed solution of ATP and TGFβRI substrate peptide (the final concentration of ATP was 50 μM, and the final concentration of substrate was 0.2 μg/μL) were added successively to a 384-well plate (4514, Corning). After reaction at 27° C. for 2.5 hours, 5 μl of ADP-Glo solution in the kit was added to each well, then the plate was placed at 27° C. for 40 minutes. 10 μl of kinase assay reagent was then added to each well, then the plate was placed at 27° C. for 30 minutes. The chemiluminescence signal values were measured with a Victor 3 (PerkinElmer) multi-function microplate reader. The IC50 values of the compounds for enzyme inhibition were calculated using Graphpad prism software based on each concentration of the compound and the corresponding signal value thereof.

TGFβRI kinase ALK5, sequence (P36897 34-503): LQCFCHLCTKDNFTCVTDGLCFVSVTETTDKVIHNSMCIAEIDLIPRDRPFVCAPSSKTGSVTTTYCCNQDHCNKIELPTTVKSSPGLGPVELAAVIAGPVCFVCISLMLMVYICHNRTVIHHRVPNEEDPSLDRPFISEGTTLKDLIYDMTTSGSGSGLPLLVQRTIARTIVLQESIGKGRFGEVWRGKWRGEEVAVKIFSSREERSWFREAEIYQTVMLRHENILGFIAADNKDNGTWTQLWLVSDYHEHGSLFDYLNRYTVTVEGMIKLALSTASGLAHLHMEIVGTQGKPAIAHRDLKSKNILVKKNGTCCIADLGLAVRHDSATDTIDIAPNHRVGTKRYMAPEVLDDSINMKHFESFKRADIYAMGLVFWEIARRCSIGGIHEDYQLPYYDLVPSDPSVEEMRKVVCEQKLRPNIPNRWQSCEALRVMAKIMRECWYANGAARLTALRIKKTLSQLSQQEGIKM

IC50 [nM]	Compound
3	Cc1cccc(-c2nc3n(c2-c2ccc4nnc(C(N)=O)n4c2)[C@@H]2CC[C@H]3C2)n1 [Example 2-2, 6-((5R,8S)-2-(6-Methylpyridin-2-yl)-5,6,7,8-tetrahydro-5,8-methanoimidazo[1,2-a]pyridin-3-yl)[1,2,4]triazolo[4,3-a]pyridine-3-carboxamide]
60	Cc1cccc(-c2nc3n(c2-c2ccc4nccc(OC5CCNCC5)c4c2)C2CCC3C2)n1 (centres unmarked) [Example 15, 2-(6-Methylpyridin-2-yl)-3-(4-(piperidin-4-yloxy)quinolin-6-yl)-5,6,7,8-tetrahydro-5,8-methanoimidazo[1,2-a]pyridine]
38	Cc1cccc(-c2nc3n(c2-c2ccnc(-c4ccc(C(=O)NC5CCOCC5)cc4)c2)C2CCC3C2)n1 (centres unmarked) [Example 17, 4-(4-(2-(6-Methylpyridin-2-yl)-5,6,7,8-tetrahydro-5,8-methanoimidazo[1,2-a]pyridin-3-yl)pyridin-2-yl)-N-(tetrahydro-2H-pyran-4-yl)benzamide]
87	Cc1cccc(-c2nc3n(c2-c2ccnc(-c4ccc(C(=O)O)cc4)c2)C2CCC3C2)n1 (centres unmarked) [Example 19, 4-(4-(2-(6-Methylpyridin-2-yl)-5,6,7,8-tetrahydro-5,8-methanoimidazo[1,2-a]pyridin-3-yl)pyridin-2-yl)benzoic acid]
85	Cc1cccc(-c2nc3n(c2-c2ccnc4ccc(C(N)=O)cc24)C2CCC3C2)n1 (centres unmarked) [Example 29, 4-(2-(6-Methylpyridin-2-yl)-5,6,7,8-tetrahydro-5,8-methanoimidazo[1,2-a]pyridin-3-yl) quinoline-6-carboxamide]
55	Cc1cccc(-c2nc3n(c2-c2ccnc(NC(=O)OC(C)(C)C)c2)C2CCC3C2)n1 (centres unmarked) [Example 31, Tert-butyl (4-(2-(6-methylpyridin-2-yl)-5,6,7,8-tetrahydro-5,8-methanoimidazo[1,2-a]pyridin-3-yl)pyridin-2-yl)carbamate]
12	Cc1cccc(-c2nn3c(c2-c2ccnc4ccc(C(N)=O)cc24)C2CCC3CC2)n1 [Example 34, 4-(2-(6-Methylpyridin-2-yl)-4,5,6,7-tetrahydro-4,7-ethanopyrazolo[1,5-a]pyridin-3-yl)quinoline-6-carboxamide]
12	Cc1cccc(-c2nn3c(c2-c2ccnc4ccc(C(N)=O)cc24)C2CCC3C2)n1 (centres unmarked) [Example 35, 4-(2-(6-Methylpyridin-2-yl)-4,5,6,7-tetrahydro-4,7-methanopyrazolo[1,5-a]pyridin-3-yl)quinoline-6-carboxamide]
28	NC(=O)c1ccc(-c2cc(-c3c(-c4ccc(F)cn4)nc4n3[C@H]3CC[C@@H]4C3)ccn2)cc1 [Example 41-1, 4-(4-((5S,8R)-2-(5-Fluoropyridin-2-yl)-5,6,7,8-tetrahydro-5,8-methanoimidazo[1,2-a]pyridin-3-yl)pyridin-2-yl)benzamide]

test system: Smad signaling pathway of TGFβRI; assay: Inhibition of Smad signaling pathway of TGFβRI (3TP-lux luciferase reporter in HepG2 cell); assay type: cell-based; details: Homo sapiens; HepG2 cell, 3TP-lux plasmid, 18 hours; read-out: IC50 on the inhibition of Smad signaling pathway of TGFβRI
Experimental: The inhibition effect of the compounds of the present invention on Smad signaling pathway of TGFβRI was determined by the following in vitro test.
The inhibition effect of the compounds of the present invention on Smad signaling pathway of TGFβRI was determined by the following experimental method:
The seeding density is 2.5×10^4 cells/well. The cells were incubated overnight at 37° C., 5% CO2. Each well was replaced with fresh EMEM medium containing 10% FBS. […] The cells were further incubated for 24 hours at 37° C., 5% CO2. Each well was replaced with 90 μL of EMEM medium containing 0.5% FBS, then the cells were starved for 6 hours. The compounds were formulated as a 20 mM stock solution, which was diluted in gradient to a 400× concentration with 100% DMSO, and further 40-fold diluted with EMEM containing 0.5% FBS. The cell culture plate was taken out, then 10 μl of diluted compound or control (0.25% DMSO) was added to each well respectively. The plate was shaken gently, then incubated for 18 hours in an incubator at 37° C., 5% CO2. Finally, 100 μl of detection reagent ONE-Glo™ Luciferase Assay (E6110, Promega) was added to each well, and the plate was placed in dark at room temperature for 10 minutes. The chemiluminescence signal values were measured with a Victor 3.0 (PerkinElmer). The IC50 values of the compounds were calculated using Graphpad Prism software based on each concentration of the compound and the corresponding signal value thereof.

IC50 [nM]	Compound
36	Cc1cccc(-c2nc3n(c2-c2ccc4nnc(C(N)=O)n4c2)[C@@H]2CC[C@H]3C2)n1 [Example 2-2, 6-((5R,8S)-2-(6-Methylpyridin-2-yl)-5,6,7,8-tetrahydro-5,8-methanoimidazo[1,2-a]pyridin-3-yl)[1,2,4]triazolo[4,3-a]pyridine-3-carboxamide]
58	Cc1cccc(-c2nc3n(c2-c2ccnc(-c4ccc(S(C)(=O)=O)cc4)c2)C2CCC3C2)n1 (centres unmarked) [Example 3, 2-(6-Methylpyridin-2-yl)-3-(2-(4-(methylsulfonyl)phenyl)pyridin-4-yl)-5,6,7,8-tetrahydro-5,8-methanoimidazo[1,2-a]pyridine]
53	Cc1cccc(-c2nc3n(c2-c2ccc(=O)n(C)c2)C2CCC3C2)n1 (centres unmarked) [Example 20, 1-Methyl-5-(2-(6-methylpyridin-2-yl)-5,6,7,8-tetrahydro-5,8-methanoimidazo[1,2-a]pyridin-3-yl)pyridin-2(1H)-one]
86	Cc1cccc(-c2nc3n(c2-c2ccnc(OCCO)c2)C2CCC3C2)n1 (centres unmarked) [Example 26, 2-((4-(2-(6-Methylpyridin-2-yl)-5,6,7,8-tetrahydro-5,8-methanoimidazo[1,2-a]pyridin-3-yl)pyridin-2-yl)oxy)ethanol]
61	Cc1cccc(-c2nn3c(c2-c2ccnc(NCCO)c2)C2CCC3CC2)n1 [Example 37, 2-((4-(2-(6-Methylpyridin-2-yl)-4,5,6,7-tetrahydro-4,7-ethanopyrazolo[1,5-a]pyridin-3-yl)pyridin-2-yl)amino)ethanol]
